{
  "source": "patent US5714469A",
  "about": "“Method of treating sepsis” (priority 1994, dated 1998)",
  "data": [
    {"system": "clinical isolate of E. coli isolated from sputum", "assay": "Antibiotic sensitivity by disc-agar diffusion technique", "assay_type": "cell-based", "experimental": "A clinical isolate of E. coli isolated from sputum was utilized. […] The organism was animal passed in mice and subsequently recovered and plated onto MacConkey's agar. The reisolated organisms were grown overnight in brain-heart infusion broth, and then stored frozen at -70° C. The inoculate the fibrin clot, organisms from thawed stocks were inoculated into brainheart infusion broth and incubated overnight on a rotary shaker (120 rpm) an 37° C. The E. coli was harvested by centrifugation, washed 3X and finally resuspended in normal saline. The number or organisms was quantified by turbidimentry, and the concentration adjusted with normal saline. All inoculum sizes were based on viable counts determined by scoring colony forming units on MacConkeys agar.", "values": [
      {"molecule": "CC(=O)OCC1=C(C(=O)O)N2C(=O)[C@@H](NC(=O)Cc3cccs3)[C@H]2SC1", "note": "[cephalothin]", "antibiotic sensitivity of the E. coli isolate": "sensitive"},
      {"molecule": "NC[C@H]1O[C@H](O[C@H]2[C@H](O)[C@@H](O[C@H]3O[C@H](CO)[C@@H](O)[C@H](N)[C@H]3O)[C@H](N)C[C@@H]2N)[C@H](O)[C@@H](O)[C@@H]1O", "note": "[kanamycin]", "antibiotic sensitivity of the E. coli isolate": "sensitive"},
      {"molecule": "CC1(C)S[C@@H]2[C@H](NC(=O)Cc3ccccc3)C(=O)N2[C@H]1C(=O)O", "note": "[penicillin G]", "antibiotic sensitivity of the E. coli isolate": "resistant"},
      {"molecule": "CN(C)[C@@H]1C(O)=C(C(N)=O)C(=O)[C@@]2(O)C(O)=C3C(=O)c4c(O)cccc4[C@@](C)(O)[C@H]3C[C@@H]12", "note": "[tetracycline]", "antibiotic sensitivity of the E. coli isolate": "sensitive"},
      {"molecule": "CC1(C)S[C@@H]2[C@H](NC(=O)[C@H](N)c3ccccc3)C(=O)N2[C@H]1C(=O)O", "note": "[ampicillin]", "antibiotic sensitivity of the E. coli isolate": "sensitive"},
      {"molecule": "O=C(N[C@H](CO)[C@H](O)c1ccc([N+](=O)[O-])cc1)C(Cl)Cl", "note": "[chloramphenicol]", "antibiotic sensitivity of the E. coli isolate": "sensitive"},
      {"molecule": "gentamicin", "antibiotic sensitivity of the E. coli isolate": "sensitive"},
      {"molecule": "CC[C@H]1OC(=O)[C@H](C)[C@@H](O[C@H]2C[C@@](C)(OC)[C@@H](O)[C@H](C)O2)[C@H](C)[C@@H](O[C@@H]2O[C@H](C)C[C@H](N(C)C)[C@H]2O)[C@](C)(O)C[C@@H](C)C(=O)[C@H](C)[C@@H](O)[C@]1(C)O", "note": "[erythromycin]", "antibiotic sensitivity of the E. coli isolate": "resistant"},
      {"molecule": "CN[C@H](CC(C)C)C(=O)N[C@H]1C(=O)N[C@@H](CC(N)=O)C(=O)N[C@H]2C(=O)N[C@H]3C(=O)N[C@H](C(=O)N[C@H](C(=O)O)c4cc(O)cc(O)c4-c4cc3ccc4O)[C@H](O)c3ccc(c(Cl)c3)Oc3cc2cc(c3O[C@@H]2O[C@H](CO)[C@@H](O)[C@H](O)[C@H]2O[C@H]2C[C@](C)(N)[C@H](O)[C@H](C)O2)Oc2ccc(cc2Cl)[C@H]1O", "note": "[vancomycin]", "antibiotic sensitivity of the E. coli isolate": "resistant"},
      {"molecule": "trimethoprin/sulfamethoxazole", "antibiotic sensitivity of the E. coli isolate": "sensitive"}
    ]}
  ]
}
